From patent US20210170033A1, “NOVEL CONJUGATES OF A PHARMACEUTICAL AGENT AND A MOIETY CAPABLE OF BINDING TO A GLUCOSE SENSING PROTEIN” (SANOFI, priority 2017, published 2021)

What follows are compounds tested on A2780 cells (assay: Deoxy-glucose uptake assay in A2780 cells (14C 2-deoxy-D-glucose transport)). Conditions: Homo sapiens, 20 min; inhibition of 14C 2-deoxy-D-glucose transport into A2780 cells; 20 min compound incubation; read-out: IC50.
Assay type: cell-based
Procedure: 1. Deoxy-Glucose Uptake Assay in A2780 Cells:
For measurement of ^14C 2-deoxy-D-glucose transport into A2780 cells, cells were seeded in 96-well plates (Cytostar-T Plates Perkin Elmer, 70,000 cells/180 μl/well) in medium complete (RPMI1640+Glutamax (Life technologies #61870)) and grown for 48 hours. After 48 h, cells were washed once with 180 μL KRB (Krebs Ringer Bicarbonate) buffer, and stimulated in a dose dependent manner by adding 10 μL of test compound dilution 0-1.1 mM (11 times higher concentration than final) or 10 μL of 1.1 mM Cytochalasin B solution as negative control, to 90 μL KRB buffer and incubated for 20 minutes. After compound stimulation, the transport of ^14C 2-deoxy-D-glucose was started by adding of 50 μL 2-^14C[U] 2-deoxy-D-glucose solution (109.1 μM 2-deoxy-D-glucose cold and 33 μM 2-^14C[U] 2-deoxy-D-glucose 0.1 μCi/well) for 20 minutes. Transport was stopped by adding 50 μL/well 96 μM Cytochalasin B solution. Plates were measured in a 96-well Wallac Microbeta device. The cpm (counts per minute) values were used to determine the % inhibition values for the test compounds within each experiment. In a first step, the mean background value generated by Cytochalasin B (a potent glucose transporter inhibitor) treated cells, was subtracted from the mean values of the treated cells. All mean values were obtained from triplicates. For %-Inhibition results, the mean value of the untreated cells (just KRB) was set as 100%. All other mean values were calculated to this relation. IC50 were obtained by regression analysis of dose response curve with 7 or 14 concentrations, respectively, for each compound.

IC50 | SMILES
1.6 µM | COC(=O)[C@@H](CCCCNC(=O)CCCCCNC(=O)CCCCCCCCC(=O)Nc1cccc(COc2cc(OC)c(C(=O)N[C@H]3[C@@H](OC)O[C@H](CO)[C@@H](O)[C@@H]3O)cc2Cl)c1)NC(=O)OC(C)(C)C [Example 472]
1.6 µM | CO[C@H]1O[C@H](CO)[C@@H](O)[C@H](O)[C@H]1NC(=O)c1cc(Cl)c(OCc2ccc(OCC(=O)OC(C)(C)C)cc2)c(Cl)c1C [Example 316]
2.7 µM | COC(=O)[C@H](CCCCNC(=O)CCCCCCC(=O)Nc1cccc(COc2cc(OC)c(C(=O)N[C@H]3[C@@H](OC)O[C@H](CO)[C@@H](O)[C@@H]3O)cc2Cl)c1)NC(=O)OC(C)(C)C [Example 441]
8.1 µM | COc1cc(OCc2nc3ccccc3n2CCCCCCCC(=O)O)c(Cl)cc1C(=O)N[C@H]1[C@@H](OC)O[C@H](CO)[C@@H](O)[C@@H]1O (relative stereo) [Example 482]
36.4 µM | CO[C@@H]1O[C@H](CO)[C@@H](O)[C@H](O)[C@H]1NC(=O)c1cc(Cl)c(OCc2ccccc2)c(Cl)c1C [Example 337]
91.4 µM | COc1cc(OCc2ccccc2)ccc1C(=O)N[C@H]1[C@@H](OC)O[C@H](CO)[C@@H](O)[C@@H]1O [Example 358]
29.1 µM | COc1cc(C(=O)N[C@H]2[C@H](OC)O[C@H](CO)[C@@H](O)[C@@H]2O)cc(Cl)c1OCCc1ccccc1 [Example 333]
5.3 µM | COC(=O)COc1ccc(COc2cc(OC)c(C(=O)N[C@H]3[C@@H](OC)O[C@H](CO)[C@@H](O)[C@@H]3O)cc2Cl)cc1 (relative stereo) [Example 386]
28 µM | COC(=O)CCCCCNC(=O)c1cccc(COc2c(Cl)cc(C(=O)N[C@H]3[C@@H](OC)O[C@H](CO)[C@@H](O)[C@@H]3O)c(C)c2Cl)c1 [Example 323]
4.4 µM | COc1cc(OCc2cccc(NC(=O)CCC(=O)OC(C)(C)C)c2)c(Cl)cc1C(=O)N[C@H]1[C@@H](OC)O[C@H](CO)[C@@H](O)[C@@H]1O [Example 428]

More lines, now with the values behind:

SMILES | IC50
CO[C@H]1O[C@H](CO)[C@@H](O)[C@H](O)[C@H]1OC(=O)c1cc(Cl)c(OCCc2ccc(Cl)cc2)c(Cl)c1C [Example 244] | 22.3 µM
COc1cc(C(=O)N[C@H]2[C@@H](OC)O[C@H](CO)[C@@H](O)[C@@H]2O)cc(Cl)c1OCc1ccccc1 [Example 179] | 38 µM
COc1cccc(CCOc2c(Cl)cc(C(=O)O[C@H]3[C@@H](OC)O[C@H](CO)[C@@H](O)[C@@H]3O)c(C)c2Cl)c1 [Example 241] | 24.5 µM
CO[C@H]1O[C@H](CO)[C@@H](O)[C@H](O)[C@H]1NC(=O)c1cc(Cl)c(OCc2cccc(OCC(=O)OC(C)(C)C)c2)c(Cl)c1C [Example 307] | 24 µM
CO[C@H]1O[C@H](CO)[C@@H](O)[C@H](O)[C@H]1OC(=O)c1cc(Cl)c(OCc2cccc(CO)n2)c(Cl)c1C [Example 259] | 12.2 µM
COc1cc(C(=O)O[C@H]2[C@@H](O)[C@@H](CO)O[C@H](OC)[C@@H]2O)cc(Cl)c1OCc1nc2ccccc2n1C(C)C [Example 127] | 32.7 µM
C#CCCC(=O)Nc1cc(COc2c(Cl)cc(C(=O)N[C@H]3[C@@H](OC)O[C@H](CO)[C@@H](O)[C@@H]3O)c(C)c2Cl)cnc1OC [Example 274] | 17.9 µM
COC(=O)c1ccc(COc2c(Cl)cc(C(=O)O[C@H]3[C@@H](OC)O[C@H](CO)[C@@H](O)[C@@H]3O)c(C)c2Cl)cn1 [Example 252] | 6.5 µM
Cc1ccc(OCc2ccccc2)cc1C(=O)OC[C@H]1OC(O)[C@H](O)[C@@H](O)[C@@H]1O (some centres unmarked) [Example 61] | 29.2 µM
COC(=O)c1ccc(COc2c(Cl)cc(C(=O)N[C@H]3[C@@H](OC)O[C@H](CO)[C@@H](O)[C@@H]3O)c(C)c2Cl)nc1 [Example 284] | 14.2 µM

Each compound was assayed on A2780 Human Carcinoma Cells (assay: Glucose displacement assay (ATP measurement, CellTiter-Glo)). Conditions: ATP measurement in A2780 cells, 0.5 μM rotenone, 1 mM glucose, read-out: IC50 [μM] at 1 mM glucose.
Assay type: cell-based
Procedure: 2. Glucose Displacement Assay (ATP Measurement)
30,000 A2780 Human Carcinoma Cells are seeded per well in a Greiner 96-well plate. Cells are expanded and cultured in RPMI 1640 medium+GlutaMAX® with 10% FCS and 11 mM glucose, at 37° C. with 5% CO2. After 44 h, culture media is changed and washed once with PBS to starvation media consisting of RPMI 1640 medium with 1% FCS without glucose for 2 hours. Cells are then washed with KRB buffer, followed by incubation for 20 min at 37° C. of the treatment mix consisting of 60 μL KRB buffer/well and 10 μL of compound or DMSO 10×. 10 μl of rotenone is added to the mix to a final concentration of 0.5 μM. Cell plates are left for 2 min at room temperature. 20 μL of different glucose concentrations are added to the mix—typically 0.1 to 10 mM range—.
Cells are incubated for another 15 min at 37° C., before measuring ATP with the CellTiter-Glo® Assay, under manufacturer's guidance, but without the equilibration step at room temperature for 30 min. In brief, 100 μl of Cell-Titer-Glo® Reagent is added to the wells containing already 100 μl of the previous reaction mix. Plates are mixed for 2 min at 800 rpm, followed by incubation at room temperature for 10 min to stabilize the luminescent signal. Luminescence is then recorded with the Tekan Ultra Evolution reader.

IC50 | SMILES
5.9 µM | COC(=O)[C@@H](CCCCNC(=O)CCCCCNC(=O)CCCCCCCCC(=O)Nc1cccc(COc2cc(OC)c(C(=O)N[C@H]3[C@@H](OC)O[C@H](CO)[C@@H](O)[C@@H]3O)cc2Cl)c1)NC(=O)OC(C)(C)C [Example 472]
1.52 µM | CO[C@H]1O[C@H](CO)[C@@H](O)[C@H](O)[C@H]1NC(=O)c1cc(Cl)c(OCc2ccc(OCC(=O)OC(C)(C)C)cc2)c(Cl)c1C [Example 316]
3 µM | COC(=O)[C@H](CCCCNC(=O)CCCCCCC(=O)Nc1cccc(COc2cc(OC)c(C(=O)N[C@H]3[C@@H](OC)O[C@H](CO)[C@@H](O)[C@@H]3O)cc2Cl)c1)NC(=O)OC(C)(C)C [Example 441]

Same assay, conditions: ATP measurement in A2780 cells, 0.5 μM rotenone, 10 mM glucose, read-out: IC50 [μM] at 10 mM glucose

IC50 | SMILES
15.6 µM | COC(=O)[C@@H](CCCCNC(=O)CCCCCNC(=O)CCCCCCCCC(=O)Nc1cccc(COc2cc(OC)c(C(=O)N[C@H]3[C@@H](OC)O[C@H](CO)[C@@H](O)[C@@H]3O)cc2Cl)c1)NC(=O)OC(C)(C)C [Example 472]
> 33 µM | CO[C@H]1O[C@H](CO)[C@@H](O)[C@H](O)[C@H]1NC(=O)c1cc(Cl)c(OCc2ccc(OCC(=O)OC(C)(C)C)cc2)c(Cl)c1C [Example 316]
11.4 µM | COC(=O)[C@H](CCCCNC(=O)CCCCCCC(=O)Nc1cccc(COc2cc(OC)c(C(=O)N[C@H]3[C@@H](OC)O[C@H](CO)[C@@H](O)[C@@H]3O)cc2Cl)c1)NC(=O)OC(C)(C)C [Example 441]
